Source: patent publication US20210113501A1, “METHOD OF ADMINISTERING BETA-HYDROXY-BETA-METHYLBUTYRATE (HMB)” (Metabolic Technologies, Inc., priority 2009, published 2021)
Where “and” joins values, the source holds several entries; their conditions need not be identical. Identical values can stand only once. Like-named read-outs stand apart in the source and are kept apart here.

Assay: Study 1: plasma HMB after a single dose, sampled to 180 min
Type: in vivo, human
Conditions: for greater area under the curve (AUC) than CaHMB / AUC plasma HMB: 180 min; for Cpeak (peak plasma HMB concentration): single dose 1 g CaHMB or 0.80 g free acid
From the text: Human subjects. In study 1, four male and four female college-aged subjects were studied. In study 2, an additional four male and four female college-aged subjects were studied. The protocols for both studies were approved by the Iowa State University IRB and each subject gave informed consent to participate in the study. Due to the nature of the treatments, neither the subjects nor the researchers could be blinded.
Treatments. The same treatments were given to the subjects in both study groups. The three treatments were given in random order to each subject with at least a one week washout period between treatments. The treatments were supplied by Metabolic Technologies, Inc. (MTI, Ames, Iowa) and were prepared with food grade ingredients. One gram of CaHMB or the equivalent HMB in free acid in a gel form was administered to the subjects. The CaHMB capsules were obtained from a commercial supplement manufacturer (Optimum Nutrition, Aurora, Ill.) while the HMB-acid gel was prepared at MTI laboratories. Briefly, the HMB-acid was adjusted to a pH 4.5 with potassium carbonate (K2CO3) and flavors and sweeteners were then added. The 1.0 g CaHMB capsule was taken with 355 mL of water (approx. 12 oz.). The free acid gel dosage was 0.80 g and was equivalent to the free acid contained in the CaHMB in the capsule. The free acid gel treatments were either swallowed (FASW) or held sublingual for 15 seconds and then swallowed (FASL). FASW consisted of expelling the entire dose into the mouth in a 3 ml syringe, swallowing, and then following this with 355 mL of water. FASL subjects were instructed to place the entire dosage under the tongue and hold the dosage for 15 sec before swallowing. They then rinsed and followed the dose with 355 mL of water.
Study 1 design. For study 1 the subjects reported to the laboratory in the morning following an overnight fast. Before ingestion of one of the supplemental treatments, a flexible sterile polyethylene catheter was inserted into a forearm vein using sterile procedures and a pre-ingestion blood sample was drawn. Subsequent blood samples were taken at 0, 2, 5, 10, 15, 25, 35, 45, 60, 90, 120 and 180 min after ingestion of the treatment. Plasma was separated and samples were stored frozen at −70° C. for analysis of HMB concentration. In addition, a portion of the pre-ingestion and 180 minute blood samples were used for measurements (LabCorp, Kansas City, Mo.) of glucose, uric acid, blood urea nitrogen (BUN), creatinine, sodium, potassium, chloride, carbon dioxide, phosphorous, protein, albumin, globulin, albumin:globulin ratio, total bilirubin, direct bilirubin, alkaline phosphatase, lactate dehydrogenase, aspartate aminotransferase (AST), alanine aminotransferase (ALT), gamma-glutamyl transpeptidase (GGT), iron binding capacity (TIBC), unsaturated iron binding capacity (UIBC), iron, iron saturation, total cholesterol, triglycerides, high density lipoprotein (HDL), low density lipoprotein (LDL), and cholesterol ratio. A complete blood count (CBC) was also performed before and after the 180 min treatment period. Subjects also completed a brief questionnaire to report any physical symptoms (such as nausea, headache, etc) they may have experienced during the experiment.
HMB analysis. Plasma and urine HMB were analyzed by gas chromatography/mass spectrometry (GC/MS) as previously described.(27)
Calculations and statistics. Areas under the curves were calculated for each subject using the trapezoidal method that sums the area above baseline.(51) Half-life of plasma HMB was calculated for study 2. The following equations were used: […]
The data were analyzed using a crossover design with Proc GLM in SAS. (45) For the timed sampling of plasma HMB a repeated measures polynomial model was used. The model included subject, order, and treatment main effects and time by treatment interaction where appropriate. […]

[1] = listed as Free Acid Gel Sublingual
[2] = listed as Free Acid Gel Swallow

SMILES: CC(C)(O)CC(=O)O [HMB-Acid Gel Sublingual, 3-hydroxy-3-methylbutyric acid]
- greater area under the curve (AUC) than CaHMB (listed as FASL): 91%
- AUC plasma HMB [1]: 26,778 ± 1,980 nmol/180 min
- tpeak (time to reach peak plasma concentration) (listed as FASL): 36.3 ± 1.3 min
- tpeak (time to reach peak plasma concentration) [1]: 36.3 ± 1.3 min
- Cpeak (peak plasma HMB concentration) (listed as FASL): 231 ± 21 nmol/mL
- Cpeak (peak plasma HMB concentration) [1]: 231.2 ± 21.0 nmol/mL

SMILES: CC(C)(O)CC(=O)O [HMB-Acid Gel Swallow, 3-hydroxy-3-methylbutyric acid]
- greater area under the curve (AUC) than CaHMB (listed as FASW): 97%
- AUC plasma HMB [2]: 27,532 ± 1,742 nmol/180 min
- tpeak (time to reach peak plasma concentration) (listed as FASW): 33.1 ± 4.6 min
- tpeak (time to reach peak plasma concentration) [2]: 33.1 ± 4.6 min
- Cpeak (peak plasma HMB concentration) (listed as FASW): 259 ± 24 nmol/mL
- Cpeak (peak plasma HMB concentration) [2]: 259.1 ± 23.9 nmol/mL

SMILES: CC(C)(O)CC(=O)[O-].CC(C)(O)CC(=O)[O-].[Ca+2] [CaHMB, calcium β-hydroxy-β-methylbutryate, reference compound]
- time of peak plasma HMB: 122 ± 15.6 min
- tpeak (time to reach peak plasma concentration): 121.9 ± 15.6 min
- AUC plasma HMB: 13,997 ± 1,534 nmol/180 min
- Cpeak (peak plasma HMB concentration): 131 ± 10 nmol/mL and 131.2 ± 10.1 nmol/mL
